We go through one compound from article PMC12406258, “Uncovering the Unusual Inhibition Mechanism of a Trypanosome Alternative Oxidase Inhibitor Displaying Broad-Spectrum Activity against African Animal Trypanosomes” (Journal of Medicinal Chemistry, 2025).

“And” between values parts separate entries of the source, which are not always exact repeats. Equal values may be shown once. Read-outs that look alike come from different tables or passages of the source. A value given as a limit tells only on which side of the number the result lay.

As usually defined, the EC50 is the concentration giving half of the maximal effect. One may read the Ki as a dissociation constant, usually derived from enzyme kinetics or from competition with a known ligand.

The nature of data set [1]: Microsomal stability, human liver microsomes. The class given is in vitro ADME. Particulars: both sexes, pH 7.4, 0.5 mg/mL microsomes, NADPH. As to the method: (§1) Pooled mixed gender human liver microsomes (HLMs) and Pooled CD1 mouse liver microsomes (female) were purchased from Tebubio. The NADPH regenerating system was purchased from Promega. All other reagents and solvents were of special or analytical grade and were commercially available. The assays were performed according to a reported protocol with small changes. […] The reactions were initiated by adding liver microsomes at a final concentration of 0.5 mg/mL in a total volume of 250 μL. […] The supernatants were analyzed with LC/MS for the amount of parent compound remaining, and the CLint and t 1/2 were determined.
(Liver microsomes are a subcellular fraction often used to study metabolism.)

The nature of a further data set: Stability in PBS buffer. The note with it: 37 °C.
Data set [2] relates to Human Embryonic Kidney (HEK) 293-T cells. The data set is described as follows: Cytotoxicity assay using Human Embryonic Kidney (HEK) 293 cells.
Method: In brief, HEK cells were grown in a culture made of 500 mL Dulbecco’s Modified Eagle’s Medium (DMEM) (Sigma), 50 mL New-born Calf Serum (NBCS) (Gibco), 5 mL L-Glutamax (200 mM, Gibco), and 5 mL Penicillin/ [...
The test system of a further data set is T. brucei. Description: DNA configuration by fluorescence microscopy after DAPI staining. The class given is cell-based. The note with it: 2 × EC50, by 24 h. The source says: To assess the cause of the apparent 24-h growth arrest visualized in Figure , we assessed the cellular DNA content by flow cytometry of fixed trypanosomes stained with the nucleic acid dye propidium iodide after RNase treatment. […] This indicates an inability to initiate new synthesis of nuclear DNA, while cells that already past that checkpoint were able to complete cell division. […] In T. brucei, the first phase of the cell cycle is the replication of the kinetoplast, before the subsequent duplication of the nucleus. Thus, at the start of the experiment (t = 0 h) an equal percentage of cells in the “compound 1” and “untreated control” cultures contained a single nucleus and kinetoplast (1N1K) or were in the initial stages of cell division with 2 kinetoplasts (1N2K) (Figure B). […] These observations strengthen our conclusion that treatment with 1 stops the initiation of a new cell division cycle, and specifically the replication of the kinetoplast that must precede nuclear DNA synthesis in trypanosomes. […]
The configuration of nuclei and kinetoplast DNA of treated and untreated T. brucei was visualized using a Vectashield mounting medium with the dye 4,6-diamidino-2-phenylindole (DAPI) (Vector Lab. CA, USA), as described. […] At least 500 cells were scored per slide for the number of kinetoplasts (K) and nuclei (N) as 1N1K, 1N2K, 2N2K, or other.

Data set [3] has as its system T. b. brucei WT (s427) trypomastigotes. Description: microbe, parasite or virus in culture. The class given is cell-based. The note with it: Trypanosoma brucei. As for the experimental part:
(§2) Other Trypanosoma species used in this study include T. evansi AntTat 3/3 (Wild-type); and T. equiperdum BoTat 1 (Bordeaux trypanozoon antigenic type 1) P (wild-type). All the trypanosomes were used only as bloodstream trypomastigotes and cultured in the standard Hirumi’s Modified Iscove’s medium #9 (HMI-9), supplemented with 10% heat-inactivated Fetal Bovine Serum (FBS), 14 μL/L β-mercaptoethanol, and 3.0 g sodium hydrogen carbonate per liter of medium (pH 7.4). Trypanosomes were cultured in vented flasks at 37 °C in a 5% CO2 atmosphere.
(§3) Briefly, this protocol involves preparing a 96-well cell culture plate with a 100 μL serially diluted test compound (200 μM top concentration) in HMI-9 + 10% FBS (24 wells per control drug or test compound, with the 24th well serving as drug-free). This is followed by adjusting the cell density of mid-log-phase trypanosome cultures to the required concentration of 2 × 10^5 cells/mL (2 × 10^4 cells/well). […] All incubations were carried out at 37 °C with 5% CO2. […] EC50 values were calculated using GraphPad Prism 9.0 software via nonlinear regression with an equation for a sigmoidal dose–response curve with variable slope (GraphPad Software Inc., San Diego, CA, USA).

Data set [4] concerns the target T1, recombinant TAO (ΔMTS rTAO) (Trypanosoma brucei brucei, UniProt Q26710).
T1 construct: […]; SUMO (Small Ubiquitin-related Modifier) fusion from the expression system; made in house
The data set is described as follows: TAO inhibitory kinetics (Lineweaver–Burk / Dixon plots). The class given is biochemical, T. brucei. As for the experimental part:
To determine the type of inhibition with purified TAO, the kinetic assay was carried out in the presence of varying concentrations of 1 and substrate concentrations (Ubiquinol; Q1H2) (0–600 μM), with 250 ng TAO in a 1 mL (0.5 M Tris-HCl buffer, pH 7.3) reaction mix. The results were used to construct the Michaelis–Menten plot, which was then transformed to Lineweaver–Burk plots (Figure A).
The slopes of the Lineweaver–Burk primary plot were plotted against the varying concentrations of 1. K i = −(intercept over the X-axis) of the Dixon secondary plot.
As previously described, the Ubiquinol oxidase activity measurement was carried out using recombinant TAO lacking the mitochondrial targeting signal (ΔMTS). […] The reaction was carried out in a 1 cm cuvette for 2 min using a V-630 Jasco UV–vis spectrophotometer (Jasco Corporation, Tokyo, Japan). Briefly, the procedure involves preincubating 250 ng of the enzyme for 2 min in a 50 mM Tris-HCl (pH 7.3) buffer containing the detergent octaethylene glycol monododecylether (0.05% (w/v)) in a total reaction volume of 1 mL at 25 °C. […] For the inhibition reaction, 250 ng of the enzyme was preincubated with varying inhibitor concentrations for 2 min using the same buffer before the substrate was added. […] This was achieved using the same protocol but without TAO. […] The residual activities were plotted against the corresponding inhibitor concentration in a GraphPad Prism-9 software to obtain the IC50 value.

Data set [5] in a line: Microsomal stability, mouse liver microsomes. Format: in vitro ADME. Particulars: female, CD1, mouse, pH 7.4, 0.5 mg/mL microsomes, NADPH. As for the experimental part: as §1
In the next data set the test system is T. equiperdum WT. The data set is described as follows: Resazurin-based drug sensitivity assay, T. equiperdum WT. The note with it: Trypanosoma equiperdum. Format: cell-based. As to the method:
as §2, §3
(Alamar Blue is a resazurin reagent that responds to reducing activity.)

In another data set the test system is T. b. brucei STIB795/luc. Description: In vivo STIB795 mouse model of T. b. brucei infection. Particulars: 5 mg/kg/day i.p. for 4 days.

T1 sequence (Q26710 26-329, stated change not applied): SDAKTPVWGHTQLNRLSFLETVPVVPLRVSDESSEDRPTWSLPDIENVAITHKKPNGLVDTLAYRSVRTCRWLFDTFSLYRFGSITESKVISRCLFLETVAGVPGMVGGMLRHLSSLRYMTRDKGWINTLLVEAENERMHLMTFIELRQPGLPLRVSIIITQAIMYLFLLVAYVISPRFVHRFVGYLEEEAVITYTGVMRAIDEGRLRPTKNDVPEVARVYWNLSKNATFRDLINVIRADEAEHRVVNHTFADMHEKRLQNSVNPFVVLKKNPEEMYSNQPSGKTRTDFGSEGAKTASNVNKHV

Turning to `Cc1cc(O)ccc1C(=O)OCCCCCCCCCCCCCC[P+](c1ccccc1)(c1ccccc1)c1ccccn1.[Br-]` [Compound 1, {14-[(4-Hydroxy-2-methylbenzoyl)-oxy]-tetradecyl}-diphenyl(pyridin-2-yl)-Phosphonium Bromide], the microsomal CLint at 1 μM in [1] (read-out: CLint,met in human microsomes) came to 216 ± 2.3 µL/min/mg; in data set [5] (read-out: CLint,met in mouse microsomes) it was 293 ± 19 µL/min/mg. Also, the results for the half-life at 1 μM in data set [1] (read-out: t1/2 in human microsomes) and in data set [5] (read-out: t1/2 in mouse microsomes) were 6.2 min and 4.6 min, respectively. In “Stability in PBS buffer”, the “Stability in PBS buffer” value is at least 1 h. Besides, the “SI (selectivity index) for T. congolense” value in data set [2] turned out to be 182. The “HEK EC50 (CC50, cytotoxicity)” value in data set [2] (HEK 293-T cells, n = 3) was 7.49 µM and 7.49 ± 0.10 µM. In addition, the “HEK SI (selectivity index)” value in data set [2] (SI = CC50 of HEK/EC50 of T. b. b WT (no glycerol)) is 2385. Moreover, the “Percentage of 1N1K cells” value in the data set on T. brucei is recorded as 100%. For the same compound, the EC50 in data set [3] (read-out: T. b. brucei WT (+5 mM glycerol) EC50, incubated in the presence of 5 mM glycerol) was found to be 1.4 ± 0.5 nM; in data set [3] (s427, no glycerol, n ≥ 4, read-out: T. b. brucei WT (no glycerol) EC50), 3.1 ± 0.6 nM; in the data set with T. equiperdum WT, 2.2 ± 0.2 nM. For the same compound, the Ki in [4] came out at 3.46 nM. For the same compound, the “Vmax of TAO in the presence of inhibitor” value in data set [4] (5 nM inhibitor) was found to be 34.7 µmol/min/mg; in [4] (10 nM inhibitor), 21.4 µmol/min/mg; in [4] (15 nM inhibitor) it was 13.0 µmol/min/mg. Further, the “Type of inhibition of TAO” value in data set [4] (Lineweaver–Burk plot) is reported as “noncompetitive”. The “In vivo efficacy (extension of lifespan)” value in the data set on T. b. brucei STIB795/luc is recorded as “no in vivo efficacy”.
